Measured values reported in publication PMC6576746, “Rational discovery of dual-indication multi-target PDE/Kinase inhibitor for precision anti-cancer therapy using structural systems pharmacology” (PLoS Computational Biology, 2019).

Experiments:
Experiment in all cases: biochemical
Parameters in all cases: DiscoverX KinomeScan competition binding assay across human kinases; per cent of control at 10 and 100 uM
Conditions in all cases: competition binding, % of control; read-out: Percent Control (100 uM Levosimendan)
[1] = target: T1, ABL1(Q252H)-phosphorylated (Homo sapiens, UniProt P00519, Q252H)
T1 construct: phosphorylated
Method in brief: (§1)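 KinomeScan competition binding was run across a human kinase panel at 10 μM and 100 μM levosimendan. Results are %control = (test − positive control)/(negative control − positive control) × 100.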

[2] = target: T2, JAK3(JH1domain-catalytic) (Homo sapiens, UniProt P52333)
T2 construct: JH1domain-catalytic
Method in brief: as §1

BMX = BMX (Homo sapiens, UniProt P51813)
Method in brief: as §1

NIK = target: T3, NIK (Homo sapiens, UniProt Q99558)
T3 construct: gene MAP3K14
Method in brief: as §1

EIF2AK1 = EIF2AK1 (Homo sapiens, UniProt Q9BQI3)
Method in brief: as §1

CAMK2A = CAMK2A (Homo sapiens, UniProt Q9UQM7)
Method in brief: as §1

TNK2 = TNK2 (Homo sapiens, UniProt Q07912)
Method in brief: as §1

CDK11 = target: T4, CDK11 (Homo sapiens, UniProt Q9BWU1)
T4 construct: gene CDK19
Method in brief: as §1

GSK3B = GSK3B (Homo sapiens, UniProt P49841)
Method in brief: as §1

TTK = TTK (Homo sapiens, UniProt P33981)
Method in brief: as §1

SNRK = SNRK (Homo sapiens, UniProt Q9NRH2)
Method in brief: as §1

ADCK3 = target: T5, ADCK3 (Homo sapiens, UniProt Q8NI60)
T5 construct: gene COQ8A
Method in brief: as §1

SRMS = SRMS (Homo sapiens, UniProt Q9H3Y6)
Method in brief: as §1

EPHA8 = EPHA8 (Homo sapiens, UniProt P29322)
Method in brief: as §1

ANKK1 = ANKK1 (Homo sapiens, UniProt Q8NFD2)
Method in brief: as §1

DYRK2 = DYRK2 (Homo sapiens, UniProt Q92630)
Method in brief: as §1

CAMK1 = CAMK1 (Homo sapiens, UniProt Q14012)
Method in brief: as §1

FGFR2 = FGFR2 (Homo sapiens, UniProt P21802)
Method in brief: as §1

PKN1 = PKN1 (Homo sapiens, UniProt Q16512)
Method in brief: as §1

Chain of FGFR2 (P21802 whole entry): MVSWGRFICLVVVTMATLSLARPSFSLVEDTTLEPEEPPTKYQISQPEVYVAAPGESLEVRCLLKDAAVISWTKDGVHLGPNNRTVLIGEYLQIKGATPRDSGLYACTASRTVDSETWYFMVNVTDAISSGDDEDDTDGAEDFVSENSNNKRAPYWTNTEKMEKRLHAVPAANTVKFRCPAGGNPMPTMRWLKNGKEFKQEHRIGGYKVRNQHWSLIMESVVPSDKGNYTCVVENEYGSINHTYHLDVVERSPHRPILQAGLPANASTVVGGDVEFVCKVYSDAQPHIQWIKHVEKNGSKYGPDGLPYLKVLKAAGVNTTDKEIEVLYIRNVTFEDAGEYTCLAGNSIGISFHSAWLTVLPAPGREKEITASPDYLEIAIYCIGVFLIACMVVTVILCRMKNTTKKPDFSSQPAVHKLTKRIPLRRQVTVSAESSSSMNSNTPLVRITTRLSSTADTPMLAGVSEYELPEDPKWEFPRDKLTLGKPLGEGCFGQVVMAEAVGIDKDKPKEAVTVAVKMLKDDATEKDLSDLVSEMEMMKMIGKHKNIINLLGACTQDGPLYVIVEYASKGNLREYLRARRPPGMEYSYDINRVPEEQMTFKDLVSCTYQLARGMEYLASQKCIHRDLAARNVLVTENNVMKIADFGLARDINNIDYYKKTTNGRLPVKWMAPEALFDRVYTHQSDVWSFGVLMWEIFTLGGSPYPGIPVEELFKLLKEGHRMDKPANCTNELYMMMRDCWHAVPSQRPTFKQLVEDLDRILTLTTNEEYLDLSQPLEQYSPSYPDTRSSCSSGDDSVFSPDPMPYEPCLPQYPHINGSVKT
Chain of GSK3B (P49841 whole entry): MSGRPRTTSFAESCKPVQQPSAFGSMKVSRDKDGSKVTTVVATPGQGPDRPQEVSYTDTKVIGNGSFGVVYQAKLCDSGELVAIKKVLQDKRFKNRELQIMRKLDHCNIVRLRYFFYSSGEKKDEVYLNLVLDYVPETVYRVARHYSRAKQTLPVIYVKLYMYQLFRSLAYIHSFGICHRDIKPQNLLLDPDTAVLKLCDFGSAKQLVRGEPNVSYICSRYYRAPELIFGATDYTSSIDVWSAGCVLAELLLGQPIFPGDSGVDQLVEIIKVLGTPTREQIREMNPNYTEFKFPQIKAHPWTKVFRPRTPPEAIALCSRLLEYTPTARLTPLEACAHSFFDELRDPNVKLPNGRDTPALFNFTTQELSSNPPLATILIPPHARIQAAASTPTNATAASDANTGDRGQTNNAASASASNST
Chain of BMX (P51813 whole entry): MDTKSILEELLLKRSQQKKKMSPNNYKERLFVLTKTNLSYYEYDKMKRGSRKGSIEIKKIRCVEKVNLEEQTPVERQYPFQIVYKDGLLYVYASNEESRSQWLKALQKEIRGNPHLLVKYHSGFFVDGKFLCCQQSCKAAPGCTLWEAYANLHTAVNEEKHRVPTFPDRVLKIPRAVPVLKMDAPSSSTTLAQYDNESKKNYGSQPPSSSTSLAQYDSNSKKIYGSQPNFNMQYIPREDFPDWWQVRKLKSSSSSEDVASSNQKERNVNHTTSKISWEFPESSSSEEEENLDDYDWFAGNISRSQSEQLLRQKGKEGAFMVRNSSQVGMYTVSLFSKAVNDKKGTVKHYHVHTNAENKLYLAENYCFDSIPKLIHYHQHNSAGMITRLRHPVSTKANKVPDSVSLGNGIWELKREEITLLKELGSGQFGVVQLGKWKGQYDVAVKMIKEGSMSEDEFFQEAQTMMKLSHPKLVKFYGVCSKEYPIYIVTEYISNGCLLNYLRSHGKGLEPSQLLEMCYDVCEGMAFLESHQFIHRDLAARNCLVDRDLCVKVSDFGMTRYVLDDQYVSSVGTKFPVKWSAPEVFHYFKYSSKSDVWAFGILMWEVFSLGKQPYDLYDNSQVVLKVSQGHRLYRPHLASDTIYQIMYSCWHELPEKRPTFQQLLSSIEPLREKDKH
Chain of TNK2 (Q07912 whole entry): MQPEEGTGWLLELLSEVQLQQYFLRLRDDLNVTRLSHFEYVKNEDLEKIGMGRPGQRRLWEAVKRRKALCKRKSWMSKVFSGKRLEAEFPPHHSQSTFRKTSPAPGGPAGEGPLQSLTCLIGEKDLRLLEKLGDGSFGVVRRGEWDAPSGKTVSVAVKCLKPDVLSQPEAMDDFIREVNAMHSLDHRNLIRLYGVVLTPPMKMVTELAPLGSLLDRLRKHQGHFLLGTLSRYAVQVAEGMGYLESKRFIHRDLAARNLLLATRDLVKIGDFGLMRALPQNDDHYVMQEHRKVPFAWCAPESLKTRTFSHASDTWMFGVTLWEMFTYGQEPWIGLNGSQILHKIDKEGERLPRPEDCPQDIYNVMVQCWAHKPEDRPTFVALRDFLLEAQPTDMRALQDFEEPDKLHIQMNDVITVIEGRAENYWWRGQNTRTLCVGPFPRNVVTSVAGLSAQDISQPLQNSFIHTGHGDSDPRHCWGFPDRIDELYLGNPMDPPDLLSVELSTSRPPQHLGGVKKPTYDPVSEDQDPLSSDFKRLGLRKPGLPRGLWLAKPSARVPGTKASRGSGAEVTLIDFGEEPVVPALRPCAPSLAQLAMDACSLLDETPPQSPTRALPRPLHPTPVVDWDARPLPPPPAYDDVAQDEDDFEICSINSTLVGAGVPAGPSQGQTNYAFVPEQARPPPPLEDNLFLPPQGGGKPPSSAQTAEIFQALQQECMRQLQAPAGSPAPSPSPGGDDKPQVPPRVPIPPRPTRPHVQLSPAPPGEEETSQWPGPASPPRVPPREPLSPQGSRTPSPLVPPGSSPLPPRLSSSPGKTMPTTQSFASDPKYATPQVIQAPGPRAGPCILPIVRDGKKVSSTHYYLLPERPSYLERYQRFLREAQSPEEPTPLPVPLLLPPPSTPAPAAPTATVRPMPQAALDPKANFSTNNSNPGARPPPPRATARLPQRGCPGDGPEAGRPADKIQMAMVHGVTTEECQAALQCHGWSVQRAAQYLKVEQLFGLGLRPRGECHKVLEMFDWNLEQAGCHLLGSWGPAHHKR
Chain of PKN1 (Q16512 whole entry): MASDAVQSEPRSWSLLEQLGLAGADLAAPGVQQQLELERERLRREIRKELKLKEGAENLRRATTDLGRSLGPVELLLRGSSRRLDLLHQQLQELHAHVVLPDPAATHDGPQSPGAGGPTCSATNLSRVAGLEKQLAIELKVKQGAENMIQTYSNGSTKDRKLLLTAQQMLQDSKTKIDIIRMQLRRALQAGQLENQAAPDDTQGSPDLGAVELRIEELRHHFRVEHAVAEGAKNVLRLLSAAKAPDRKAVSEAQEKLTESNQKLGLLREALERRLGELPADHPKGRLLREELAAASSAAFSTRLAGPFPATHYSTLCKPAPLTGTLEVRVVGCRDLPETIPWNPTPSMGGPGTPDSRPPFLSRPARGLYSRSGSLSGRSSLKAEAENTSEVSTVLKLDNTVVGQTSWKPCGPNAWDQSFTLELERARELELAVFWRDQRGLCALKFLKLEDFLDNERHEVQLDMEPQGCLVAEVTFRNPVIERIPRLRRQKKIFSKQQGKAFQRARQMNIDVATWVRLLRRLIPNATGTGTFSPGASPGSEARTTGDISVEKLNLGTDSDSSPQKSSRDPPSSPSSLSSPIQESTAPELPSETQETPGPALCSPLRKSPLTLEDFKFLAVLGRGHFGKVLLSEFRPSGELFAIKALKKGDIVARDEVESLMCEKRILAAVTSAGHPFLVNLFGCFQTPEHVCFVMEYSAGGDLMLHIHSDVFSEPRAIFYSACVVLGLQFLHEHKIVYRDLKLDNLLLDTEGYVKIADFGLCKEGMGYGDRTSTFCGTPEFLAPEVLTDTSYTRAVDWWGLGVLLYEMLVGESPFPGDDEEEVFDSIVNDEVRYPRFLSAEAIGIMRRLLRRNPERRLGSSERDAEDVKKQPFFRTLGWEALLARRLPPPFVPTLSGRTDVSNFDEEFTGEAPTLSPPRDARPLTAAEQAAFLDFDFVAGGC
Chain of EPHA8 (P29322 whole entry): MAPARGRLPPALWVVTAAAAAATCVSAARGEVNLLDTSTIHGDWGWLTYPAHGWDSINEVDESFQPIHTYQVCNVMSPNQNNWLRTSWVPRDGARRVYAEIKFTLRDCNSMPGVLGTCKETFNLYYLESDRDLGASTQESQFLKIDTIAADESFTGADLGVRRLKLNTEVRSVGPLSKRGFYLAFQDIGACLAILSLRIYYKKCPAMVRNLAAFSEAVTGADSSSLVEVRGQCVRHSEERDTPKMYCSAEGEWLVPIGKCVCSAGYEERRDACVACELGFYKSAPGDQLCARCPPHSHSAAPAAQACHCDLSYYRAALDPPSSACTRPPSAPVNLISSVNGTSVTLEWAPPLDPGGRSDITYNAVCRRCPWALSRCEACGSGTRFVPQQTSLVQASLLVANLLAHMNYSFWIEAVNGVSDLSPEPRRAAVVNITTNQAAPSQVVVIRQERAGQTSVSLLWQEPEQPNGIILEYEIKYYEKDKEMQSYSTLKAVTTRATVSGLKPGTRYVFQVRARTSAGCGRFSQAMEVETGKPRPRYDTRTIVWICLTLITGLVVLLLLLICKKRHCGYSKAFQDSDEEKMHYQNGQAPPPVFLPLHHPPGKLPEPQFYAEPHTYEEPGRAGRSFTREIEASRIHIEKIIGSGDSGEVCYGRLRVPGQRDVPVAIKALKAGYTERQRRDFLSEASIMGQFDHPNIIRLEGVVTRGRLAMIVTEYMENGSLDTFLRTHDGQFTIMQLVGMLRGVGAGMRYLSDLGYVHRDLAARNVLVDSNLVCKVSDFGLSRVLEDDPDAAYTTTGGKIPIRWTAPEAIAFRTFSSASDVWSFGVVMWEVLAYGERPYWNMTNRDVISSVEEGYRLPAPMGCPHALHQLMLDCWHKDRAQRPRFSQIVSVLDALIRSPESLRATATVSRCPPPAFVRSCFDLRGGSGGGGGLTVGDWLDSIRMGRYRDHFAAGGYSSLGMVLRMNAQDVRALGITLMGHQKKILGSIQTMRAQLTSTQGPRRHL

remaining binding at 100 µM [1]: 68%
remaining binding at 100 µM [2]: 75%
remaining binding at 100 µM (BMX): 77%
remaining binding at 100 µM (NIK): 83%
remaining binding at 100 µM (EIF2AK1): 100%
remaining binding at 100 µM (CAMK2A): 73%
remaining binding at 100 µM (TNK2): 86%
remaining binding at 100 µM (CDK11): 100%
remaining binding at 100 µM (GSK3B): 100%
remaining binding at 100 µM (TTK): 86%
remaining binding at 100 µM (SNRK): 100%
remaining binding at 100 µM (ADCK3): 57%
remaining binding at 100 µM (SRMS): 100%
remaining binding at 100 µM (EPHA8): 91%
remaining binding at 100 µM (ANKK1): 77%
remaining binding at 100 µM (DYRK2): 85%
remaining binding at 100 µM (CAMK1): 77%
remaining binding at 100 µM (FGFR2): 61%
remaining binding at 100 µM (PKN1): 100%
SMILES: C[C@@H]1CC(=O)NN=C1c1ccc(NN=C(C#N)C#N)cc1 [levosimendan]
